Reference: the supplement of paper PMC10307832

Columns and labels:
Test in all cases: relative viability (nuclei count vs DMSO), 5 days (fraction); higher = more cells survive
AZ628 + Phenformin = compound: CC1=C(C=C(C=C1)NC(=O)C2=CC(=CC=C2)C(C)(C)C#N)NC3=CC4=C(C=C3)N=CN(C4=O)C [AZ628] + N=C(N)NC(=N)NCCc1ccccc1 [Phenformin] (partner 250 µM)
How it was run: (§1)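 Nuclei were stained with Hoechst during a one-step fixation (final 0.05% Triton X-100, 1% formaldehyde, 1 ug/ml Hoechst) carried out 5 days after dosing, then counted on 4× images. The cells, lung cancer lines in 1536-well plates, had been dosed by pin tool the day after seeding with one drug alone or a fixed anchor-drug dose plus five library-drug doses (not always all listed) in √10 steps. Relative viability is the nuclei count in treated wells divided by that in vehicle wells, and each value is the median of duplicate plates.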

AZ628 + Linsitinib = compound: CC1=C(C=C(C=C1)NC(=O)C2=CC(=CC=C2)C(C)(C)C#N)NC3=CC4=C(C=C3)N=CN(C4=O)C [AZ628] + C[C@]1(O)C[C@@H](c2nc(-c3ccc4ccc(-c5ccccc5)nc4c3)c3c(N)nccn32)C1 [Linsitinib] (partner 1 µM)
How it was run: as §1

QS11 + Olaparib = compound: C1CC2=C(C1)C=C(C=C2)OC3=NC(=C4C(=N3)N(C=N4)CC5=CC=C(C=C5)C6=CC=CC=C6)N[C@@H](CC7=CC=CC=C7)CO [QS11] + O=C(c1cc(Cc2n[nH]c(=O)c3ccccc23)ccc1F)N1CCN(C(=O)C2CC2)CC1 [Olaparib] (partner 8 µM)
How it was run: as §1

QS11 + Tozasertib = compound: C1CC2=C(C1)C=C(C=C2)OC3=NC(=C4C(=N3)N(C=N4)CC5=CC=C(C=C5)C6=CC=CC=C6)N[C@@H](CC7=CC=CC=C7)CO [QS11] + Cc1cc(Nc2cc(N3CCN(C)CC3)nc(Sc3ccc(NC(=O)C4CC4)cc3)n2)n[nH]1 [Tozasertib] (partner 0.1 µM)
How it was run: as §1

Cell Line	relative viability (AZ628 + Phenformin; first compound 0.08 µM)	relative viability (AZ628 + Phenformin; first compound 0.253 µM)	relative viability (AZ628 + Phenformin; first compound 0.8 µM)	relative viability (AZ628 + Phenformin; first compound 2.53 µM)	relative viability (AZ628 + Phenformin; first compound 8 µM)	relative viability (AZ628 + Linsitinib; first compound 0.08 µM)	relative viability (AZ628 + Linsitinib; first compound 0.253 µM)	relative viability (AZ628 + Linsitinib; first compound 0.8 µM)	relative viability (AZ628 + Linsitinib; first compound 2.53 µM)	relative viability (AZ628 + Linsitinib; first compound 8 µM)	relative viability (QS11 + Olaparib; first compound 0.08 µM)	relative viability (QS11 + Olaparib; first compound 0.253 µM)	relative viability (QS11 + Olaparib; first compound 0.8 µM)	relative viability (QS11 + Olaparib; first compound 2.53 µM)	relative viability (QS11 + Olaparib; first compound 8 µM)	relative viability (QS11 + Tozasertib; first compound 0.08 µM)	relative viability (QS11 + Tozasertib; first compound 0.253 µM)	relative viability (QS11 + Tozasertib; first compound 0.8 µM)	relative viability (QS11 + Tozasertib; first compound 2.53 µM)	relative viability (QS11 + Tozasertib; first compound 8 µM)
UMC-11	0.322	0.268	0.339	0.294	0.255	1.02	1.12	1.03	0.976	1.02	0.324	0.41	0.268	0.329	0.395	0.174	0.27	0.182	0.181	0.184
LCLC-103H	0.358	0.329	0.343	0.302	0.308	1.02	1.15	1.15	1.07	1.04	0.799	0.849	–	0.791	0.814	0.389	0.496	0.358	0.477	0.43
LU99A	0.808	0.67	0.694	0.782	0.551	0.485	0.444	0.686	0.678	0.274	0.253	0.311	0.27	0.258	0.253	0.269	0.285	0.273	0.296	0.245
LXF-289	0.527	0.499	0.473	0.501	0.362	1.02	0.949	0.932	0.92	0.589	1.03	1.1	0.823	0.95	0.963	0.159	0.197	0.147	0.213	0.253
EPLC-272H	0.419	0.37	0.363	0.302	0.2	1.26	1.13	1.12	1.08	0.834	0.707	0.888	0.716	0.808	0.505	–	0.17	0.258	0.248	0.292
LOU-NH91	0.749	0.654	0.776	0.661	0.438	0.962	1	1.07	0.964	0.66	0.893	0.9	0.876	0.937	0.998	0.67	0.647	0.629	0.597	0.572
HCC-44	0.218	0.0997	0.136	0.115	0.203	0.701	0.646	0.672	0.678	0.666	1.05	1.09	0.597	0.989	0.987	1	0.981	0.694	0.792	0.458
NCI-H1651	0.396	0.316	0.334	0.312	0.36	1.16	1.08	1.12	1.05	0.989	0.168	0.202	0.171	0.195	0.162	0.819	0.698	0.678	0.548	0.507
